Two compounds from US6627650B2, “Indenoindolone compounds” (Les Laboratoires Servier, priority 2001, dated 2003) can be followed below.

Counter-ions that a name gives are not always drawn. Like-named read-outs stand apart in the source and are kept apart here.

The subject of one experiment is P388. The experiment in a line: In vitro cytotoxicity, microculture tetrazolium assay, P388. In kind it is cell-based. Conditions: Mus musculus, 48 h; P388 murine leukaemia, 2 days incubation, inhibition of proliferation. On the procedure: (§1) Five cell lines were used:
(§2) The cells are cultured in RPMI 1640 complete culture medium comprising 10% fetal calf serum, 2 mM glutamine, 50 units/ml of penicillin, 50 μg/ml of streptomycin and 10 mM Hepes, pH 7.4. The cells are distributed on microplates and are exposed to the cytotoxic compounds. The cells are then incubated for four doubling periods (2 days: L1210, P388, or 4 days: A549, HT29, A-431). The number of viable cells is then quantified by a colorimetric assay, the microculture tetrazolium assay (Cancer Res. 1987, 47 939-942).
(§3) The results are expressed as IC50, the concentration of product that inhibits the proliferation of the treated cells by 50% compared with the untreated cells.

In the next experiment the test system is L1210. The experiment in a line: In vitro cytotoxicity, microculture tetrazolium assay, L1210. Conditions: Mus musculus, 48 h; L1210 murine leukaemia, 2 days incubation, inhibition of proliferation. The format is cell-based. On the procedure: as §1, §2, §3
The test system of a further experiment is A549. The experiment in a line: In vitro cytotoxicity, microculture tetrazolium assay, A549. In kind it is cell-based, human. The conditions noted are these: read-out: IC50 A549. On the procedure:
as §1
1 non-small-cell human lung carcinoma, A549.
as §2, §3

In another experiment the test system is L1210 cells. The experiment in a line: Action on the cell cycle (L1210), flow cytometry. In kind it is cell-based, murine. The conditions noted are these: concentration 0.25 μM, after 21 hours (control: 20%). On the procedure:
L1210 cells are incubated for 21 hours at 37° C. in the presence of various concentrations of compound tested. The cells are then fixed using 70% ethanol (v/v), washed twice in PBS and incubated for 30 minutes at 20° C. in PBS that contains 100 μg/ml of RNAse and 50 μg/ml of propidium iodide. The distribution of the cells in the various phases of the cell cycle are then analysed by flow cytometry. The results are expressed as a percentage of the cells that have accumulated in the G2+M phase after 21 hours compared with the control (control: 20%). By way of example, at a concentration of 0.25 μM the compounds of Examples 1 and 18 induce a 75% accumulation of the cells in the G2+M phase after 21 hours.
Background: A flow cytometer gives signals particle by particle.

For another experiment, the system named is HT29. The experiment in a line: In vitro cytotoxicity, microculture tetrazolium assay, HT29. In kind it is cell-based, human. The conditions noted are these: HT-29, 96 h, read-out: IC50 HT29. On the procedure: as §1
1 human colon carcinoma, HT29.
as §2, §3

The subject of the next experiment is A-431. The experiment in a line: In vitro cytotoxicity, microculture tetrazolium assay, A-431. The conditions noted are these: read-out: IC50 A-431. In kind it is cell-based, human. On the procedure:
as §1
1 human epidermoid carcinoma, A-431.
as §2, §3

For a further experiment, the system named is C38 colon carcinoma. The experiment in a line: In vivo anti-tumour activity on established C38 colon carcinoma. Conditions: from a dose of 25 mg/kg, i.v. once a week for 3 weeks (days 10, 17 and 24), B6D2F1 mice, subcutaneous C38. On the procedure: Fragments of C38 colon carcinoma weighing approximately 30 mg were grafted subcutaneously on day 0 onto B6D2F1 mice (Iffa Credo, France). After growth of the tumour, the mice were separated into control (18 animals) and treated (6 to 7 animals) groups, which were homogeneous in respect of the tumour size. The products were administered by the i.v. route once a week for 3 weeks (on days 10, 17 and 24) at their maximum tolerated dose (MTD), MTD/2 and MTD/4.
The tumours were measured twice per week and the tumour volumes were calculated according to the formula: volume (mm^3)=length (mm)×width^2 (mm^2)/2.
The anti-tumour activity is expressed as % T/C: [formula]
VO and Vt denoting, respectively, the initial volume of the tumour and its volume at the time of measurement t.
The optimum dose is the dose that yields the lowest T/C without toxicity (premature death or loss of weight greater than 20%).

By IC50 is commonly meant the concentration needed to halve the response being measured. Turning to `C#CCO/N=C1/c2cc(OC)c(OC)cc2-c2[nH]c3ccc(OCCN(C)C)cc3c21.Cl` [Example 18, (10Z)-8-(2-Dimethylaminoethoxy)-2,3-dimethoxyindeno[1,2-b]indole-10(5H)-one O-(2-Propynyl)oxime Hydrochloride], the IC50 stood at 0.241 µM in the experiment with P388; 0.104 µM with L1210; 0.101 µM in the experiment on A549 (96 h, A549 non-small-cell human lung carcinoma, 4 days incubation); 0.181 µM with HT29 (HT29 human colon carcinoma, 4 days incubation); 0.174 µM in the experiment on A-431 (96 h, A-431 human epidermoid carcinoma, 4 days incubation). Also, in the experiment on L1210 cells, the “accumulation of the cells in the G2+M phase” value is given as 75%. In the experiment with C38 colon carcinoma, the “T/C (tumour volume)” value was 24%.
On to `C#CC(O/N=C1/c2cc(OC)c(OC)cc2-c2[nH]c3ccc(OCCN(C)C)cc3c21)c1ccccc1` (centres unmarked) [Example 1, (10Z)-8-(2-Dimethylaminoethoxy)-2,3-dimethoxyindeno[1,2-b]indole-10(5H)-one O-(1-Phenyl-2-Propynyl)oxime Hydrochloride], for which the half-inhibitory concentration (IC50) with A549 (Homo sapiens, A549, 96 h) is 0.071 µM; with HT29 (Homo sapiens), 0.248 µM; with A-431 (Homo sapiens, A-431, 96 h) it was 0.087 µM. Also, in the experiment with L1210 cells, the “accumulation of the cells in the G2+M phase” value amounted to 75%.
